Reference: patent US4971967A, “Quinolinecarboxylic acid derivatives, antibacterial compositions and use” (Kanebo Ltd, priority 1989, dated 1990)
≈ marks a conversion by molar mass, not a printed value. Structures can show the parent of a compound that is named as a salt. Where two headings read alike, the source gives them in different places.

Key:
Assay type in all cases: cell-based
[1] = tested on: Klebsiella pneumoniae PCI-602; experiment: Antibacterial activity (MIC), Klebsiella pneumoniae PCI-602; settings: PCI602; Klebsiella pneumoniae PCI-602, Gram -; read-out: Minimum inhibitory concentration (MIC)
Experimental: (§1) The compounds of the present invention (A, C, D, E, F, G, H, I, J, L, O and P) and the known compound (X) as reference were dissolved in 0.1 N aqueous sodium hydroxide to prepare a solution of 5000 μg/ml in concentration. The compounds of the present invention (B, K, M and N) and the known compound (Y) were dissolved in sterilized distilled water to prepare a solution of 5000 μg/ml in concentration. Each solution was diluted with sterilized distilled water to prepare a standard solution with a concentration of each test compound: 1000 μg/ml. The test was carried out by a method as appointed by Japan Society of Chemotherapy [cf. Chemotherapy, 29, 76-79 (1981)(TOKYO)].

[2] = tested on: Pseudomonas aeruginosa NCTC 10490; experiment: Antibacterial activity (MIC), P. aeruginosa NCTC 10490; settings: Pseudomonas aeruginosa, NCTC10490, Pseudomonas aeruginosa NCTC 10490, Gram -; read-out: Minimum inhibitory concentration (MIC)
Experimental: as §1

Escherichia coli KC-14 = experiment: Antibacterial activity (MIC), E. coli KC-14
Experimental: as §1

[3] = tested on: Citrobacter freundii NIHJ 10018-68; experiment: Antibacterial activity (MIC), Citrobacter freundii NIHJ 10018-68; settings: Citrobacter freundii, NIHJ10018, Citrobacter freundii NIHJ 10018-68, Gram -; read-out: Minimum inhibitory concentration (MIC)
Experimental: as §1

[4] = tested on: Serratia marcescens IAM 1184; experiment: Antibacterial activity (MIC), Serratia marcescens IAM 1184; settings: Serratia marcescens, IAM1184, Serratia marcescens IAM 1184, Gram -; read-out: Minimum inhibitory concentration (MIC)
Experimental: as §1

[5] = tested on: Staphylococcus aureus FDA 209P JC-1; experiment: Antibacterial activity (MIC), S. aureus FDA 209P JC-1; settings: FDA209P, read-out: Minimum inhibitory concentration (MIC)
Experimental: as §1

[6] = tested on: Morganella morganii IFO 3848; experiment: Antibacterial activity (MIC), Morganella morganii IFO 3848; settings: Morganella morganii, IFO3848, Morganella morganii IFO 3848, Gram -; read-out: Minimum inhibitory concentration (MIC)
Experimental: as §1

[7] = tested on: Escherichia coli NIHJ JC-2; experiment: Antibacterial activity (MIC), E. coli NIHJ JC-2; settings: NIHJJC2; Escherichia coli NIHJ JC-2, Gram -; read-out: Minimum inhibitory concentration (MIC)
Experimental: as §1

[8] = tested on: Bacillus subtilis ATCC 6633; experiment: Antibacterial activity (MIC), Bacillus subtilis ATCC 6633; settings: Bacillus subtilis, ATCC6633, Bacillus subtilis ATCC 6633, Gram +; read-out: Minimum inhibitory concentration (MIC)
Experimental: as §1

[9] = tested on: Staphylococcus epidermidis IAM-1296; experiment: Antibacterial activity (MIC), S. epidermidis IAM-1296; settings: Staphylococcus epidermidis, IAM1296, Staphylococcus epidermidis IAM-1296, Gram +; read-out: Minimum inhibitory concentration (MIC)
Experimental: as §1

Proteus vulgaris OX-19 = experiment: Antibacterial activity (MIC), Proteus vulgaris OX-19
Experimental: as §1

[10] = tested on: Proteus mirabilis IFO 3849; experiment: Antibacterial activity (MIC), Proteus mirabilis IFO 3849; settings: IFO3849; Proteus mirabilis IFO 3849, Gram -; read-out: Minimum inhibitory concentration (MIC)
Experimental: as §1

Enterobacter cloacae 963 = experiment: Antibacterial activity (MIC), Enterobacter cloacae 963; settings: Enterobacter cloacae, 963, Enterobacter cloacae 963, Gram -; read-out: Minimum inhibitory concentration (MIC)
Experimental: as §1

[11] = tested on: Streptococcus faecalis IID 682; experiment: Antibacterial activity (MIC), Streptococcus faecalis IID 682; settings: Enterococcus faecalis
Experimental: as §1

[12] = tested on: Acinetobacter calcoaceticus AC 54; experiment: Antibacterial activity (MIC), Acinetobacter calcoaceticus AC 54; settings: AC54; Acinetobacter calcoaceticus AC 54, Gram -; read-out: Minimum inhibitory concentration (MIC)
Experimental: as §1

[13] = tested on: Micrococcus luteus ATCC 9341; experiment: Antibacterial activity (MIC), Micrococcus luteus ATCC 9341; settings: ATCC9341; Micrococcus luteus ATCC 9341, Gram +; read-out: Minimum inhibitory concentration (MIC)
Experimental: as §1

[14] = tested on: Salmonella typhimurium IID 971; experiment: Antibacterial activity (MIC), Salmonella typhimurium IID 971; settings: Salmonella enterica, read-out: Minimum inhibitory concentration (MIC)
Experimental: as §1

[15] = tested on: Pseudomonas aeruginosa IFO 3445; experiment: Antibacterial activity (MIC), P. aeruginosa IFO 3445; settings: Pseudomonas aeruginosa, IFO3445, Pseudomonas aeruginosa IFO 3445, Gram -; read-out: Minimum inhibitory concentration (MIC)
Experimental: as §1

Shigella sonnei EW-33 = experiment: Antibacterial activity (MIC), Shigella sonnei EW-33; settings: Shigella sonnei, EW33, Shigella sonnei EW-33, Gram -; read-out: Minimum inhibitory concentration (MIC)
Experimental: as §1

[16] = tested on: Pseudomonas aeruginosa E-2; experiment: Antibacterial activity (MIC), P. aeruginosa E-2; settings: E2; Pseudomonas aeruginosa E-2, Gram -; read-out: Minimum inhibitory concentration (MIC)
Experimental: as §1

[17] = tested on: Enterobacter aerogenes ATCC 13048; experiment: Antibacterial activity (MIC), Enterobacter aerogenes ATCC 13048; settings: Klebsiella aerogenes, ATCC13048; Enterobacter aerogenes ATCC 13048, Gram -; read-out: Minimum inhibitory concentration (MIC)
Experimental: as §1

[18] = tested on: Staphylococcus aureus IID 803; experiment: Antibacterial activity (MIC), S. aureus IID 803
Experimental: as §1

[19] = KC14, Escherichia coli KC-14, Gram -, read-out: Minimum inhibitory concentration (MIC)
[20] = Staphylococcus aureus FDA 209P JC-1, Gram +
[21] = OX19, Proteus vulgaris OX-19, Gram -, read-out: Minimum inhibitory concentration (MIC)
[22] = IID682, Streptococcus faecalis IID 682, Gram +, read-out: Minimum inhibitory concentration (MIC)
[23] = Salmonella typhimurium IID 971, Gram -
[24] = IID803, Staphylococcus aureus IID 803, Gram +, read-out: Minimum inhibitory concentration (MIC)

Structure (SMILES) | MIC [1] [µg/mL] | MIC [2] [µg/mL] | MIC (Escherichia coli KC-14; [19]) [µg/mL] | MIC [3] [µg/mL] | MIC [4] [µg/mL] | MIC [5, 20] [µg/mL] | MIC [6] [µg/mL] | MIC [7] [µg/mL] | MIC [8] [µg/mL] | MIC [9] [µg/mL] | MIC (Proteus vulgaris OX-19; [21]) [µg/mL] | MIC [10] [µg/mL] | MIC (Enterobacter cloacae 963) [µg/mL] | MIC [11, 22] [µg/mL] | MIC [12] [µg/mL] | MIC [13] [µg/mL] | MIC [15] [µg/mL] | MIC (Shigella sonnei EW-33) [µg/mL] | MIC [16] [µg/mL] | MIC [17] [µg/mL] | further results
CN1Cc2csc3c(C(=O)O)c(=O)c4cc(F)c(N5CCC(N)C5)c1c4n23 (centres unmarked) [(H), 9,1-(Methylimino)methano-7-fluoro-8-(3-amino-1-pyrrolidinyl)-5-oxo-5H-thiazolo[3,2-a]quinoline-4-carboxylic acid] | 0.006 (≈ 0.0154 µM) | 0.2 (≈ 0.515 µM) | 0.0125 (≈ 0.0322 µM) | 0.1 (≈ 0.257 µM) | 0.1 (≈ 0.257 µM) | 0.025 (≈ 0.0644 µM) | 0.05 (≈ 0.129 µM) | 0.05 (≈ 0.129 µM) | 0.006 (≈ 0.0154 µM) | 0.05 (≈ 0.129 µM) | 0.0125 (≈ 0.0322 µM) | 0.1 (≈ 0.257 µM) | 0.05 (≈ 0.129 µM) | 0.05 (≈ 0.129 µM) | 0.0125 (≈ 0.0322 µM) | 0.2 (≈ 0.515 µM) | 0.2 (≈ 0.515 µM) | 0.05 (≈ 0.129 µM) | 0.39 (≈ 1 µM) | 0.05 (≈ 0.129 µM) | MIC [14, 23]: 0.05 µg/mL (≈ 0.129 µM); MIC [18, 24]: 0.006 µg/mL (≈ 0.0154 µM)
CN1Cc2csc3c(C(=O)O)c(=O)c4cc(F)c(N5CCC(O)C5)c1c4n23 (centres unmarked) [Compound (G), 9,1-(Methylimino)methano-7-fluoro-8-(3-hydroxy-1-pyrrolidinyl)-5-oxo-5H-thiazolo[3,2-a]quinoline-4-carboxylic acid] | 0.006 (≈ 0.0154 µM) | 0.39 (≈ 1 µM) | 0.1 (≈ 0.257 µM) | 0.78 (≈ 2 µM) | 0.78 (≈ 2 µM) | 0.0125 (≈ 0.0321 µM) | 0.2 (≈ 0.514 µM) | 0.1 (≈ 0.257 µM) | 0.006 (≈ 0.0154 µM) | 0.0125 (≈ 0.0321 µM) | 0.0125 (≈ 0.0321 µM) | 0.1 (≈ 0.257 µM) | 0.2 (≈ 0.514 µM) | – | 0.006 (≈ 0.0154 µM) | 0.39 (≈ 1 µM) | 0.78 (≈ 2 µM) | 0.05 (≈ 0.128 µM) | 0.78 (≈ 2 µM) | 0.2 (≈ 0.514 µM) | MIC ([11]; IID682, read-out: Minimum inhibitory concentration (MIC)): 0.05 µg/mL (≈ 0.128 µM); MIC [14]: 0.05 µg/mL (≈ 0.128 µM); MIC [18, 24]: 0.0125 µg/mL (≈ 0.0321 µM)
CCNCC1CCN(c2c(F)cc3c(=O)c(C(=O)O)c4scc5n4c3c2N(C)C5)C1 (centres unmarked) [Compound (M), 9,1-(Methylimino)methano-7-fluoro-8-(3-ethylaminomethyl-1-pyrrolidinyl)-5-oxo-5H-thiazolo[3,2-a]quinoline-4-carboxylic acid hydrochloride] | 0.006 | 0.39 | 0.1 | 0.78 | 0.78 | 0.025 | 0.2 | 0.1 | 0.0125 | 0.05 | 0.05 | 0.39 | 0.2 | 0.05 | 0.05 | 0.2 | 1.56 | 0.05 | 1.56 | 0.1 | MIC [14, 23]: 0.1 µg/mL; MIC [18, 24]: 0.0125 µg/mL
CC1CN(c2c(F)cc3c(=O)c(C(=O)O)c4scc5n4c3c2N(C)C5)CC(C)N1 (centres unmarked) [Compound (E), 9,1-(Methylimino)methano-7-fluoro-8-(3,5-dimethyl-1-piperazinyl)-5-oxo-5H-thiazolo[3,2-a]-quinoline-4-carboxylic acid] | 0.006 (≈ 0.0144 µM) | 0.39 (≈ 0.936 µM) | – | 1.56 (≈ 3.75 µM) | 0.78 (≈ 1.87 µM) | – | 0.39 (≈ 0.936 µM) | 0.1 (≈ 0.24 µM) | 0.025 (≈ 0.06 µM) | 0.1 (≈ 0.24 µM) | – | 0.78 (≈ 1.87 µM) | 0.2 (≈ 0.48 µM) | 0.2 (≈ 0.48 µM) | 0.025 (≈ 0.06 µM) | 0.39 (≈ 0.936 µM) | 1.56 (≈ 3.75 µM) | 0.05 (≈ 0.12 µM) | 1.56 (≈ 3.75 µM) | 0.2 (≈ 0.48 µM) | MIC (Escherichia coli KC-14; Escherichia coli, KC14, read-out: Minimum inhibitory concentration (MIC)): 0.05 µg/mL (≈ 0.12 µM); MIC ([5]; Staphylococcus aureus): 0.05 µg/mL (≈ 0.12 µM); MIC (Proteus vulgaris OX-19; Proteus vulgaris, OX19, read-out: Minimum inhibitory concentration (MIC)): 0.05 µg/mL (≈ 0.12 µM); MIC [14, 23]: 0.1 µg/mL (≈ 0.24 µM); MIC ([18]; Staphylococcus aureus, IID803, read-out: Minimum inhibitory concentration (MIC)): 0.05 µg/mL (≈ 0.12 µM)
CNCC1CCN(c2c(F)cc3c(=O)c(C(=O)O)c4scc5n4c3c2N(C)C5)C1 (centres unmarked) [Compound (N), 9,1-(Methylimino)methano-7-fluoro-8-(3-methylaminomethyl-1-pyrrolidinyl)-5-oxo-5H-thiazolo[3,2-a]quinoline-4-carboxylic acid hydrochloride] | 0.0125 | 0.39 | 0.05 | 0.78 | 0.78 | 0.025 | 0.2 | 0.1 | 0.025 | 0.05 | 0.05 | 0.39 | 0.1 | 0.05 | 0.05 | 0.2 | 0.78 | 0.05 | 0.78 | 0.2 | MIC [14, 23]: 0.1 µg/mL; MIC [18, 24]: 0.0125 µg/mL
